Activity calls are given as the source filed them. The calls are words filed in the database; no cut-off is given here.
What was measured:
MGC-803 [1] = test: Cytotoxicity against human MGC803 cells after 72 hrs by MTT assay; type: functional, cell-based; settings: MGC-803, 72 h
Bel7402/5-FU [2] = test: Cell cycle arrest in human Bel7402/5-FU cells assessed as decrease in accumulation at S phase at 0.25 to 1 uM measured after 24 hrs by propidium iodide staining based flow cytometry; type: functional
Bel7402/5-FU [3] = test: Induction of apoptosis in human Bel7402/5-FU cells assessed as late apoptotic cells at 0.5 uM measured after 24 hrs by Annexin V-FITC/propidium iodide staining based flow cytometry (reference value: 8.05%); type: functional
Bel7402/5-FU [4] = test: Induction of apoptosis in human Bel7402/5-FU cells assessed as late apoptotic cells at 1 uM measured after 24 hrs by Annexin V-FITC/propidium iodide staining based flow cytometry (reference value: 8.05%); type: functional
Bel7402/5-FU [5] = test: Induction of apoptosis in human Bel7402/5-FU cells assessed as early apoptotic cells at 2 uM measured after 24 hrs by Annexin V-FITC/propidium iodide staining based flow cytometry (reference value: 2.8%); type: functional
Bel7402/5-FU [6] = test: Cell cycle arrest in human Bel7402/5-FU cells assessed as accumulation at G1 phase at 1 uM measured after 24 hrs by propidium iodide staining based flow cytometry (reference value: 26.32%); type: functional
A549 = test: Cytotoxicity against human A549 cells after 72 hrs by MTT assay; type: functional, cell-based; settings: A549, 72 h
MGC-803 [7] = test: Potency index, ratio of shikonin IC50 to test compound IC50 for human MGC803 cells; type: functional
Bel7402/5-FU [8] = test: Induction of apoptosis in human Bel7402/5-FU cells assessed as necrotic cells at 1 uM measured after 24 hrs by Annexin V-FITC/propidium iodide staining based flow cytometry (reference value: 0.137%); type: functional
Bel7402/5-FU [9] = test: Induction of apoptosis in human Bel7402/5-FU cells assessed as necrotic cells at 0.5 uM measured after 24 hrs by Annexin V-FITC/propidium iodide staining based flow cytometry (reference value: 0.137%); type: functional
Bel7402/5-FU [10] = test: Cytotoxicity against human Bel7402/5-FU cells after 72 hrs by MTT assay; type: functional, cell-based
Bel7402/5-FU [11] = test: Induction of apoptosis in human Bel7402/5-FU cells assessed as late apoptotic cells at 2 uM measured after 24 hrs by Annexin V-FITC/propidium iodide staining based flow cytometry (reference value: 8.05%); type: functional
[12] = Selectivity ratio of IC50 for human […] cells to IC50 for human Bel7402/5-FU cells; type: functional
HCT-15 [13] = test: Cytotoxicity against human HCT15 cells after 72 hrs by MTT assay; type: functional, cell-based; settings: HCT-15, 72 h
[14] = Selectivity ratio of IC50 for human MCF7 cells to IC50 for human MCF7/ADR cells; type: functional
MCF7 = test: Cytotoxicity against human MCF7 cells after 72 hrs by MTT assay; type: functional, cell-based; settings: MCF7, 72 h
Bel7402/5-FU [15] = test: Cell cycle arrest in human Bel7402/5-FU cells assessed as accumulation at G1 phase at 0.5 uM measured after 24 hrs by propidium iodide staining based flow cytometry (reference value: 26.32%); type: functional
[16] = Cytotoxicity against human […] cells after 72 hrs by MTT assay; type: functional, cell-based
K562 [17] = test: Potency index, ratio of shikonin IC50 to test compound IC50 for human K562 cells; type: functional
K562 [18] = test: Cytotoxicity against human K562 cells after 72 hrs by MTT assay; type: functional, cell-based; settings: K562, 72 h
Bel7402/5-FU [19] = test: Induction of apoptosis in human Bel7402/5-FU cells assessed as early apoptotic cells at 1 uM measured after 24 hrs by Annexin V-FITC/propidium iodide staining based flow cytometry (reference value: 2.8%); type: functional
HCT-15 [20] = test: Potency index, ratio of shikonin IC50 to test compound IC50 for human HCT15 cells; type: functional
Bel7402/5-FU [21] = test: Cell cycle arrest in human Bel7402/5-FU cells assessed as increase in accumulation at G1 phase measured after 24 hrs by propidium iodide staining based flow cytometry; type: functional
Bel7402/5-FU [22] = test: Induction of apoptosis in human Bel7402/5-FU cells assessed as early apoptotic cells at 0.5 uM measured after 24 hrs by Annexin V-FITC/propidium iodide staining based flow cytometry (reference value: 2.8%); type: functional
NCI/ADR-RES = test: Cytotoxicity against human MCF7/ADR cells after 72 hrs by MTT assay; type: functional, cell-based
Bel7402/5-FU [23] = test: Induction of apoptosis in human Bel7402/5-FU cells assessed as increase in ratio of Bax/Bcl2 level at 0.5 to 4 uM measured after 24 to 48 hrs by Western blot analysis; type: functional, cell-based
[24] = Selectivity index, ratio of IC50 for human HSF cells to IC50 for human HCT15 cells; type: toxicity; settings: HSF cells versus HCT15 cells, read-out: Ratio IC50
Bel7402/5-FU [25] = test: Cell cycle arrest in human Bel7402/5-FU cells assessed as decrease in accumulation at G2/M phase at 0.25 to 1 uM measured after 24 hrs by propidium iodide staining based flow cytometry; type: functional
Bel7402/5-FU [26] = test: Induction of apoptosis in human Bel7402/5-FU cells assessed as nuclear fragmentation at 0.5 to 2 uM measured after 24 hrs by Hoechst 33342/propidium iodide staining based fluorescence microscopy; type: functional, cell-based
Bel7402/5-FU [27] = test: Induction of apoptosis in human Bel7402/5-FU cells assessed as cell shrinkage at 0.5 to 2 uM measured after 24 hrs by Hoechst 33342/propidium iodide staining based fluorescence microscopy; type: functional
Bel7402/5-FU [28] = test: Induction of apoptosis in human Bel7402/5-FU cells assessed as viable cells at 0.5 uM measured after 24 hrs by Annexin V-FITC/propidium iodide staining based flow cytometry (reference value: 89%); type: functional; settings: read-out: Activity
[29] = Selectivity ratio of IC50 for human A549 cells to IC50 for human A549/TAX cells; type: functional
Bel7402/5-FU [30] = test: Cell cycle arrest in human Bel7402/5-FU cells assessed as accumulation at G1 phase at 0.25 uM measured after 24 hrs by propidium iodide staining based flow cytometry (reference value: 26.32%); type: functional
A549/TR = test: Cytotoxicity against human A549/TAX cells after 72 hrs by MTT assay; type: functional, cell-based
Bel7402/5-FU [31] = test: Inhibition of colony formation in human Bel7402/5-FU cells up to 4 uM measured after 10 days by giemsa staining based assay; type: functional, cell-based
Bel7402/5-FU [32] = test: Induction of apoptosis in human Bel7402/5-FU cells measured after 24 hrs by Annexin V-FITC/propidium iodide staining based flow cytometry; type: functional, cell-based
Bel7402/5-FU [33] = test: Induction of apoptosis in human Bel7402/5-FU cells assessed as viable cells at 2 uM measured after 24 hrs by Annexin V-FITC/propidium iodide staining based flow cytometry (reference value: 89%); type: functional; settings: read-out: Activity
Bel7402/5-FU [34] = test: Induction of apoptosis in human Bel7402/5-FU cells assessed as necrotic cells at 2 uM measured after 24 hrs by Annexin V-FITC/propidium iodide staining based flow cytometry (reference value: 0.137%); type: functional
Bel7402/5-FU [35] = test: Induction of apoptosis in human Bel7402/5-FU cells assessed as viable cells at 1 uM measured after 24 hrs by Annexin V-FITC/propidium iodide staining based flow cytometry (reference value: 89%); type: functional; settings: read-out: Activity
[36] = Cytotoxicity against human HSF cells after 72 hrs by MTT assay; type: cell-based

CCCCCCCCC(SC(=O)/C=C/c1ccccc1)c1cc(OC)c2c(c1OC)/C(=N/O)C=C/C2=N\O (stereo not given)
IC50 (MGC-803 [1]): 790 nM
Activity (Bel7402/5-FU [2]): Active
Activity (Bel7402/5-FU [3]): 12.3%
Activity (Bel7402/5-FU [4]): 15.2%
Activity (Bel7402/5-FU [5]): 58.3%
Activity (Bel7402/5-FU [6]): 50.69%
IC50 (A549): 6570 nM
Ratio IC50 (MGC-803 [7]): 2
Activity (Bel7402/5-FU [8]): 4.64%
Activity (Bel7402/5-FU [9]): 1.17%
IC50 (Bel7402/5-FU [10]): 290 nM
Activity (Bel7402/5-FU [11]): 29.2%
Ratio IC50 [12]: 1.45
IC50 (HCT-15 [13]): 380 nM
Ratio IC50 [14]: 8.37
IC50 (MCF7): 11100 nM
Activity (Bel7402/5-FU [15]): 44.5%
IC50 [16]: 420 nM
Ratio IC50 (K562 [17]): 2
IC50 (K562 [18]): 460 nM
Activity (Bel7402/5-FU [19]): 32.2%
Ratio IC50 (HCT-15 [20]): 2
Activity (Bel7402/5-FU [21]): Dose-dependent effect
Activity (Bel7402/5-FU [22]): 22.1%
IC50 (NCI/ADR-RES): 1330 nM
Activity (Bel7402/5-FU [23]): Active
selectivity ratio [24]: > 132
Activity (Bel7402/5-FU [25]): Active
Activity (Bel7402/5-FU [26]): Active
Activity (Bel7402/5-FU [27]): Active
viability at 0.5 µM (Bel7402/5-FU [28]): 64.4%
Ratio IC50 [29]: 9.13
Activity (Bel7402/5-FU [30]): 35.56%
IC50 (A549/TR): 720 nM
inhibition (Bel7402/5-FU [31]): Active
Activity (Bel7402/5-FU [32]): Dose-dependent effect
viability at 2 µM (Bel7402/5-FU [33]): 10.7%
Activity (Bel7402/5-FU [34]): 1.7%
viability at 1 µM (Bel7402/5-FU [35]): 47.9%
IC50 [36]: > 50000 nM

Source: ChEMBL document CHEMBL4480391, “Discovery and synthesis of sulfur-containing 6-substituted 5,8-dimethoxy-1,4-naphthoquinone oxime derivatives as new and potential anti-MDR cancer agents” (Eur J Med Chem, 2019)
